Measured values as given in patent US9636311B2, “N,N′-di-1 naphthylguanidine HCl (NAGH) and N,N′-di-p-nitrophenylguanidine HCl (NAD) treatment for stroke at delayed timepoints” (University of South Florida, priority 2012, dated 2017).

Legend:
Type in all cases: in vivo, rat
rats following MCAO [1] = test: Iba1 immunostaining of microglia after MCAO; settings: 30 days after stroke; p>0.05
Description: (§1) MCAO surgeries were performed as described elsewhere (Vendrame M, Cassady C J, Newcomb J, Butler T, Pennypacker K R, Zigova T, et al. Stroke. 2004; 35:2390-2395). Briefly, rats were anesthetized with isoflurane, and the right common carotid and external carotid arteries were exposed using blunt dissection techniques. The vagus nerve was separated from common carotid artery and the external carotid artery was ligated proximally, and transected near the bifurcation. An embolus 40 mm in length (4.0 siliconized monofilament) was inserted into the external carotid artery and fed distally into the origin of the middle cerebral artery (˜25 mm from insertion) through the internal carotid artery. Blood samples were taken and analyzed using an i-STAT handheld analyzer for hemoglobin, hematocrit, ionized calcium, glucose, sodium, potassium, pH, pCO2, HCO3, TCO2, base excess, pO2, and O2. Cerebral blood flow was recorded using a Laser Doppler Monitor (Moor Instruments) to verify occlusion. […]
Anti-Iba1 (1:500; Wako 019-19741) immunocytochemistry was used for the specific identification of microglia. […] Iba-1 positive cells were quantified (n=12) as previously detailed by Smirkin et al. (Smirkin, Matsumoto et al. 2010) with little modification. […] Total number of Iba-1 positive cells were counted manually by two observer using ImagePro plus software.

rats following MCAO [2] = test: Battery of behavioral tests after MCAO (corner, grip, rotorod, step, cylinder); settings: 30 days after MCAO
Description: After surgery, animals were tested was performed once before surgery and 30 days post-surgery for motor coordination and behavior. All behavioral data are reported as mean+sem.
Rotorod test, which measures motor coordination, was conducted using Omni-rotor Rotorod (Omnitech, Inc). Animals were trained on the accelerating rotorod apparatus for 3 consecutive days before times were collected. Animals were placed on the revolving rod and instrument was set to accelerate to a maximum speed of 40 rpm over 180 seconds. Latency to fall (in seconds) was recorded. This test was performed in triplicate once per day for 3 days.
Rats were held tightly with one forelimb placed on a hard flat table top and then pulled for a length of 1 meter in the direction of the placed forelimb at constant velocity. The test was repeated with the opposite forelimb. This was repeated three times for each forelimb and the percent of contralateral forelimb paw was obtained. The bias was standardized as the absolute number of steps with the contralateral paw minus 100.
The animals were placed in a transparent cylinder about 20 cm in diameter and 30 cm in height with an open top. The number times each paw was placed on the sides of the cylinder was counted a5 minute period. The test was videotaped and a mirror was placed behind the cylinder allowing the experimenter to see the placement of paws when the animal was facing away from the camera.
A 30 degree angle was formed using the edges of two plexiglass boards. The animals were placed halfway into the corner facing the corner and the total number of left and right turns was recorded. A total of 10 trials were conducted and videotaped. A non-lesioned animal turned randomly toward the left or right, while a lesioned animal preferentially turned toward the non-impaired (left) side. Results were reported as the percentage of ipsilateral (injury site, right side) versus contralateral turns.
Motor deficits were assessed using a grip strength meter (Bioseb, # BIO-GS3). […] Grip strength was recorded in Newtons (N). […]

rats following MCAO [3] = test: Elevated body swing test after MCAO; settings: 30 days after MCAO; p=0.009
Description: as §1
The animal was placed in a Plexiglas box (40×40×35.5 cm), allowed to habituate for 2 minutes and attain a neutral position, defined as having all four paws on the ground. […] A swing was recorded whenever the animal moved its head out of the vertical axis to the right or left over […]. Swings were recorded using a hand counter. […]

With `Cl.N=C(Nc1cccc2ccccc12)Nc1cccc2ccccc12` [NAGH, N,N′-di-1-Naphthylguanidine hydrochloride] the “Activated microglia (Iba1 positive cells) in peri-infarct and ischemic core vs DMSO” value (rats following MCAO [1]) was “not statistically significant”, the “Overall behavioral data vs vehicle, all tests except EBST” value (rats following MCAO [2]; NAGH 0.86 mg/kg s.c. x3) was “no significant differences” and the “Changes in asymmetry on the cylinder test” value (rats following MCAO [2]; NAGH) was “failed to gain significance”. The “EBST bias vs DMSO” value (rats following MCAO [3]) was “significantly less bias”.
